# Results reported in patent US20160303112A1 (Laguna Pharmaceuticals, Inc., priority 2013, published 2016).
# Assays:
# [1] = Plasma concentrations after a single 300 mg dose of vanoxerine in 25 patients (Example 1); assay type: in vivo, human; conditions: low concentration group
# Description: Each patient gave samples before administration of their dose, and then again at nine further time points, 30 minutes after administration, 1, 2, 3, 4, 6, 8, 12, and 24 hours post administration.
# [2] = Plasma concentration of vanoxerine in individual arrhythmia patients (Example 2); assay type: in vivo, human
# cardiac arrhythmia = test: Conversion to normal sinus rhythm in individual patients (Example 2); assay type: in vivo, human; conditions: second patient, supraventricular tachycardia, 200 mg + 200 mg
# Description: Accordingly a further dose was required and administered to the patient. […] Wherein the patient is instructed to utilize a monitoring device with instructions on pricking the finger and providing a blood sample, for testing of the blood. Wherein the plasma concentration has not met at least 60 ng/ml, the second dose is to be taken to ensure that the patient achieves suitable plasma concentrations and converts to normal sinus rhythm.
# [3] = human, in vivo, 50 mg
# Text: The results are listed below in Table 7.
# [4] = Daily doses for 14 days in fourteen healthy patients (Example 4); assay type: in vivo, human; conditions: 25, 75 and 125 mg daily for 14 days
# Description: A standardized meal was served 15 minutes prior to each dosing.
# "pure" atrial flutter = test: Conversion of Atrial Flutter (Example 6); assay type: in vivo, human; conditions: any time within 24 hours, N 4
# Description: The vanoxerine or identical appearing placebo was randomly assigned and administered in a double-blinded fashion. Definition of “pure” atrial flutter: only Atrial Flutter (no AF) seen at −30, −15, and 0 time points. Conversion at any time within 24 hours.
# [5] = Adverse events in the placebo-controlled study (Example 6); assay type: in vivo, human
# Text: The vanoxerine or identical appearing placebo was randomly assigned and administered in a double-blinded fashion.
# [6] = healthy subjects; cited from earlier work
# [7] = first patient, atrial fibrillation, 200 mg
# [8] = second patient, supraventricular tachycardia, first 200 mg dose
# [9] = third patient, premature ventricular contractions, 200 mg
compound,measurement,setting,value
"Fc1ccc(C(OCCN2CCN(CCCc3ccccc3)CC2)c2ccc(F)cc2)cc1 [Vanoxerine, 1-[2-[bis(4-fluorophenyl)methoxy]ethyl]-4-(3-phenylpropyl)piperazine]",Highest plasma level at any time point,[1],~40 ng/mL
same,maximum concentration in the plasma,[2]; [7],about 70 ng/ml
same,time of maximum concentration post administration,[2]; [7],60 min
same,concentration at 180 minutes,"[2]; human, plasma, second patient, 180 minutes after first dose, further 200 mg given at 120 minutes",60 ng/mL
same,maximum concentration in the plasma,[2]; [8],about 20 ng/ml
same,time of maximum concentration post administration,[2]; [8],60 min
same,maximum concentration in the plasma,[2]; [9],about 150 ng/ml
same,time of maximum concentration post administration,[2]; [9],60 min
same,time of conversion to normal sinus rhythm post administration of the first dose,cardiac arrhythmia,about 6 hours
same,TMax,[3],TMax 1.27 +− 0.5 hr (0.5-2.0)
same,steady state serum levels versus dose,[4],disproportionately and statistically greater levels at higher doses
same,Conversion of Atrial Flutter,"""pure"" atrial flutter; 200 mg",50%
same,Conversion of Atrial Flutter,"""pure"" atrial flutter; 300 mg",75%
same,Conversion of Atrial Flutter,"""pure"" atrial flutter; 400 mg",75%
same,number of AEs reported,[5]; 200 mg (22),reporting 8 AEs
same,number of SAE,[5]; 200 mg (22),(1 SAE)
same,number of AEs reported,[5]; 300 mg (25),reporting 12 AEs
same,number of AEs reported,[5]; 400 mg (25),23 AEs
same,number of SAE,[5]; 400 mg (25),(1 SAE)
same,proarrhythmia,"[5]; 200, 300, 400 mg",absence of proarrhythmia
same,tolerability,"[5]; all doses (200, 300, 400 mg)",well tolerated
same,serious adverse events,"[5]; one at 200 mg, one at 400 mg, neither related to the study drug",only two serious adverse events
same,serum concentrations,[6],unexpected fluctuations in serum concentrations
